ChEMBL document CHEMBL4400545 (Bioorg Med Chem, 2019)

What was measured:
[1] = molecular target: T1, Sodium- and chloride-dependent GABA transporter 1 (Rattus norvegicus, UniProt P23978); assay: Inhibition of GAT-1 in rat brain homogenate; assay type: tissue-based
[2] = molecular target: T2, Sodium- and chloride-dependent GABA transporter 1 (Mus musculus, UniProt P31648); assay: Binding affinity to mouse GAT-1 expressed in HEK293 cells after 4 hrs in presence of NO711 by LC-ESI-MS/ms analysis; assay type: cell-based
[3] = molecular target: T2, Sodium- and chloride-dependent GABA transporter 1; assay: Inhibition of mouse GAT-1 expressed in HEK293 cells assessed as decrease in [3H]GABA uptake preincubated for 25 mins followed by [3H]GABA addition and measured after 4 mins by scintillation counting analysis; assay type: cell-based
[4] = tested on: Sodium- and chloride-dependent GABA transporter 2 (Mus musculus); assay: Inhibition of mouse GAT-3 expressed in HEK293 cells assessed as remaining [3H]GABA uptake at 100 uM preincubated for 25 mins followed by [3H]GABA addition and measured after 4 mins by scintillation counting analysis
[5] = tested on: Sodium- and chloride-dependent betaine transporter (Mus musculus); assay: Inhibition of mouse GAT-2 expressed in HEK293 cells assessed as remaining [3H]GABA uptake at 100 uM preincubated for 25 mins followed by [3H]GABA addition and measured after 10 mins by scintillation counting analysis
[6] = molecular target: T3, GABA transporter 4 (Mus musculus) (UniProt P31650); assay: Inhibition of mouse GAT-4 expressed in HEK293 cells assessed as remaining [3H]GABA uptake at 100 uM preincubated for 25 mins followed by [3H]GABA addition and measured after 4 mins by scintillation counting analysis; assay type: cell-based
T3 sequence (whole entry): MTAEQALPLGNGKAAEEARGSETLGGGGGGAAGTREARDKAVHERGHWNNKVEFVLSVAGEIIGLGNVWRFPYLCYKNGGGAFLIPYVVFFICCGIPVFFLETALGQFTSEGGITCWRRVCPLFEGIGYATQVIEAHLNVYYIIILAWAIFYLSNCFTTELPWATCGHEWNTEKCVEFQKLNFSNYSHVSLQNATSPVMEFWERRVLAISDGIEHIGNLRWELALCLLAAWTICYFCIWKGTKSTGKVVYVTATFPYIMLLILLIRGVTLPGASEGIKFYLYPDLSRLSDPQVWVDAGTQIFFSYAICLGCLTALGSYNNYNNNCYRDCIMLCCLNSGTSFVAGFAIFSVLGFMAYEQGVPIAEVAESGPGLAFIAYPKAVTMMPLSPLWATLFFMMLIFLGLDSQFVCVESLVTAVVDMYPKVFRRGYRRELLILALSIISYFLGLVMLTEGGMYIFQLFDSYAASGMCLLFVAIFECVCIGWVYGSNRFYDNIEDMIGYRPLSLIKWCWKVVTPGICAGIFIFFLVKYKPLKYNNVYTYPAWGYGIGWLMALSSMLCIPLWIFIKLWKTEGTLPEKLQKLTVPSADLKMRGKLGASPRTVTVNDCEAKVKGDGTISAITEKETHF

GABA transporter 4 = molecular target: T4, GABA transporter 4 (Mus musculus, UniProt P31650); assay: Inhibition of mouse GAT-4 expressed in HEK293 cells assessed as decrease in [3H]GABA uptake preincubated for 25 mins followed by [3H]GABA addition and measured after 4 mins by scintillation counting analysis; assay type: cell-based
T4 sequence (P31650 whole entry): T3 sequence (whole entry)

[7] = molecular target: T1, Sodium- and chloride-dependent GABA transporter 1; assay: Inhibition of GAT-1 in rat brain homogenate assessed as decrease in [3H]GABA uptake preincubated for 8 mins followed by [3H]GABA addition and measured after 8 mins by scintillation counting analysis; assay type: tissue-based
[8] = molecular target: Sodium- and chloride-dependent GABA transporter 1 (Mus musculus) (UniProt P31648); assay: Inhibition of mouse GAT-1 assessed as percentage of remaining specific binding of NO711 at 1 uM after 4 hrs by LC-ESI-MS/ms analysis relative to control
[9] = molecular target: Sodium- and chloride-dependent GABA transporter 1 (Mus musculus) (UniProt P31648); assay: Inhibition of mouse GAT-1 assessed as percentage of remaining specific binding of NO711 at 100 nM after 4 hrs by LC-ESI-MS/ms analysis relative to control
[10] = molecular target: Sodium- and chloride-dependent GABA transporter 1 (Mus musculus) (UniProt P31648); assay: Inhibition of mouse GAT-1 assessed as percentage of remaining specific binding of NO711 at 40 uM after 4 hrs by LC-ESI-MS/ms analysis relative to control
[11] = molecular target: Sodium- and chloride-dependent GABA transporter 1 (Mus musculus) (UniProt P31648); assay: Inhibition of mouse GAT-1 assessed as percentage of remaining specific binding of NO711 at 4 uM after 4 hrs by LC-ESI-MS/ms analysis relative to control

| Ki [2] [nM] | IC50 [3] [nM] | Activity [8] | Activity [9] | Compound | other results |
| --- | --- | --- | --- | --- | --- |
|  |  |  |  | O=C(O)[C@@H]1CCCN(CCO/N=C(\Cc2ccccc2F)c2ccccc2F)C1 | IC50 [1]: 80 nM |
| 5.13 | 5.37 |  |  | O=C(O)C1=CCCN(CCO/N=C/c2ccccc2-c2ccc(Cl)cc2Cl)C1 |  |
| 2.82 | 32.4 |  |  | O=C(O)[C@@H]1CCCN(CCO/N=C/c2ccccc2-c2ccc(F)cc2Cl)C1 | Activity [4]: 77.7%; Activity [5]: 50.1%; Activity [6]: 50.9% |
| 4.47 | 56.2 |  |  | O=C(O)C1=CCCN(CCO/N=C/c2ccccc2-c2ccc(F)cc2F)C1 |  |
| 5.89 | 102 |  |  | O=C(O)[C@@H]1CCCN(CCO/N=C/c2ccccc2-c2ccc(F)cc2F)C1 | Activity [4]: 75.5%; Activity [5]: 56.6%; Activity [6]: 62.5% |
| 5.89 | 60.3 |  |  | O=C(O)[C@@H]1CCCN(CCO/N=C/c2ccccc2-c2ccc(Cl)cc2Cl)C1 | IC50 (GABA transporter 4): 63100 nM |
|  |  |  |  | O=C(O)C1=CCCN(CCON=C(c2ccccc2)c2ccccc2)C1 | IC50 [7]: 40 nM |
| 10.5 | 38.9 | 5% | Below limit of detection | O=C(O)C1CCCN(CCO/N=C/c2ccccc2-c2ccc(Cl)cc2Cl)C1 (racemic) | IC50 (GABA transporter 4): 70800 nM |
| 13.8 | 85.1 | 17% | 16% | O=C(O)C1CCCN(CCO/N=C/c2ccccc2-c2ccc(F)cc2F)C1 (racemic) | Activity [4]: 90.9%; Activity [5]: 78.3%; Activity [6]: 62.5% |
| 17 | 170 | 16% | Below limit of detection | O=C(O)C1CCCN(CCO/N=C/c2cc(F)ccc2-c2ccc(Cl)cc2Cl)C1 (racemic) | IC50 (GABA transporter 4): 32400 nM |
| 11.7 | 28.2 | 12% | Below limit of detection | O=C(O)C1CCCN(CCO/N=C/c2sccc2-c2ccc(Cl)cc2Cl)C1 (racemic) | IC50 (GABA transporter 4): 72400 nM |
| 10 | 66.1 | 11% | Below limit of detection | O=C(O)C1CCCN(CCO/N=C/c2ccccc2-c2ccc(F)cc2Cl)C1 (racemic) | Activity [4]: 62.6%; Activity [5]: 61.6%; Activity [6]: 80.9% |
|  |  | 7% | 48% | CC(/C=N/OCCN1CCCC(C(=O)O)C1)(CCC#N)c1ccccc1 (racemic) |  |
|  |  | 7% | 48% | Cc1onc(-c2ccc(Cl)cc2)c1/C=N/OCCN1CCCC(C(=O)O)C1 (racemic) |  |
|  |  |  |  | NOCCN1CCCC(C(=O)O)C1 (racemic) | Activity [10]: 92%; Activity [11]: 99% |
|  |  | 41% | 20% | O=C(O)C1CCCN(CCO/N=C/C(c2ccccc2)c2ccccc2)C1 (racemic) |  |

| Ki [2] [nM] | IC50 [3] [nM] | Activity [8] | Activity [9] | Compound | other results |
| --- | --- | --- | --- | --- | --- |
|  |  | 7% | 48% | O=C(O)C1CCCN(CCO/N=C/c2c[nH]nc2-c2ccc(F)cc2)C1 (racemic) |  |
|  |  | 58% | 16% | O=C(O)C1CCCN(CCO/N=C/c2cc(F)ccc2-c2ccccc2)C1 (racemic) |  |
|  |  | 42% | 16% | O=C(O)C1CCCN(CCO/N=C/c2cc(F)ccc2-c2ccccc2F)C1 (racemic) |  |
|  |  | 83% | Below limit of detection | O=C(O)C1CCCN(CCO/N=C/c2ccc(-c3ccc(C(F)(F)F)cc3Cl)o2)C1 (racemic) |  |
|  |  | 80% | 20% | O=C(O)C1CCCN(CCO/N=C/c2ccc(-c3ccccc3)cc2)C1 (racemic) |  |
|  |  | 84% | Below limit of detection | O=C(O)C1CCCN(CCO/N=C/c2ccc(-c3ccccc3OC(F)(F)F)o2)C1 (racemic) |  |
|  |  | 87% | 20% | O=C(O)C1CCCN(CCO/N=C/c2cccc(-c3ccccc3)c2)C1 (racemic) |  |
|  |  | Below limit of detection | 38% | O=C(O)C1CCCN(CCO/N=C/c2ccccc2-c2ccc(Cl)cc2)C1 (racemic) |  |
|  |  | Below limit of detection | 38% | O=C(O)C1CCCN(CCO/N=C/c2ccccc2-c2ccc(F)cc2)C1 (racemic) |  |
|  |  | Below limit of detection | 38% | O=C(O)C1CCCN(CCO/N=C/c2ccccc2-c2cccc(Cl)c2)C1 (racemic) |  |
|  |  | Below limit of detection | 38% | O=C(O)C1CCCN(CCO/N=C/c2ccccc2-c2cccc(F)c2)C1 (racemic) |  |
|  |  | 26% | Below limit of detection | O=C(O)C1CCCN(CCO/N=C/c2ccccc2-c2ccccc2Cl)C1 (racemic) |  |
|  |  | 25% | Below limit of detection | O=C(O)C1CCCN(CCO/N=C/c2ccccc2-c2ccccc2F)C1 (racemic) |  |
|  |  | 7% | 48% | O=C(O)C1CCCN(CCO/N=C/c2ccccc2-c2cccs2)C1 (racemic) |  |
|  |  | 91% | Below limit of detection | O=C(O)C1CCCN(CCO/N=C/c2cccn2-c2ccc(C(F)(F)F)cc2)C1 (racemic) |  |
| 55 |  |  |  | Cc1ccsc1C(=CCCN1CCC[C@@H](C(=O)O)C1)c1sccc1C [TIAGABINE] |  |
